From patent publication US11072588B2, “Barbituric acid derivatives comprising cationic and lipophilic groups” (UNIVERSITETET I TROMSØ—NORGES ARKTISKE UNIVERSITET, priority 2017, dated 2021) come the findings set out here.

What all share (assay type): cell-based
In experiment [1] the test system is human metastatic melanoma (A2058, ATCC CRL-11147) cells. The experiment can be described thus: Anti-cancer activity against A2058 cells. To be noted: A2058, read-out: Anti-cancer IC50. Here is the method: Cytotoxicity of the test compounds was evaluated after 72 hour exposure to human metastatic melanoma (A2058, ATCC CRL-11147) cells.
A2058 cells were grown overnight (2,000 cells/well), and then incubated with the test compounds (range of concentrations) diluted in MEM Earle's supplemented with gentamycin (10 μg/mL), non-essential amino acids (1%), sodium pyruvate (1 mM), L-alanyl-Lglutamine (2 mM), but without FBS (total volume was 100 μl) for […]. Ten μL of CellTiter 96® AQueous One Solution Reagent (Promega, Madison, Wis., USA) was added, and the plates were then further incubated for 1 hour.
Absorbance was measured at 485 nm in a DTX 880 Multimode Detector. Results were calculated as % survival compared to negative (assay media) and positive (Triton X-100; Sigma-Aldrich) controls.

Experiment [2] concerns Escherichia coli ATCC 25922. The experiment in a line: MIC assay, antibiotic susceptible reference strain. As to conditions: ATCC25922; Escherichia coli ATCC 25922; read-out: Antimicrobial activity (MIC) E. c. Here is the method: (§1) Working solutions of the test derivatives were prepared with up to 100% DMSO and stored at −20° C. If necessary, the solutions were heated to 40-80° C. before testing to facilitate complete dissolution. Double-distilled water was used in all dilutions prepared. […] A microdilution susceptibility test was used for MIC determination according to Clinical and Laboratory Standards Institute, “Methods for Dilution Antimicrobial Sisceptibility Tests for Bacteria That Graw Aerobically”, Approved Standard M07-A9, edition 2012, with modifications as described by Igumnova et al (Bioorg Med Chem, 2016, 24 (22), 5884-5894).
(§2) Briefly, the bacterial inoculum was adjusted to approximately 2.5-3×10^4 cells/mL in Mueller-Hinton broth (MHB, Difco Laboratories, USA), and incubated in a ratio of 1:1 with test derivatives in polystyrene 96-well flat-bottom microplates (NUNC, Roskilde, Denmark). Positive growth control (without test derivatives) and negative control (without bacteria) were included. The reference antibiotic was oxytetracycline hydrochloride (Sigma Aldrich, Saint Louis, Mo., USA). The microplates were incubated in an EnVision microplate reader (Perkin-Elmer, Turku, Finland) placed in an incubator set to 35° C. for 48 h. The MIC value was defined as the lowest concentration of derivative resulting in no bacterial growth as determined by OD600 measurement. All derivatives were tested in three parallels.

The test system of experiment [3] is Corynebacterium glutamicum ATCC 13032. The experiment can be described thus: MIC assay, antibiotic susceptible reference strain. As to conditions: ATCC13032; Corynebacterium glutamicum ATCC 13032; read-out: Antimicrobial activity (MIC) C. g. Here is the method:
as §1, §2

Experiment [4] concerns Staphylococcus aureus ATCC 9144. The experiment can be described thus: MIC assay, antibiotic susceptible reference strain. As to conditions: ATCC9144; Staphylococcus aureus ATCC 9144; read-out: Antimicrobial activity (MIC) S. a. Here is the method: as §1, §2
Experiment [5] concerns Pseudomonas aeruginosa PA01, DSM 19880 (ATCC 15692). The experiment can be described thus: MIC assay, antibiotic susceptible reference strain. To be noted: Pseudomonas aeruginosa PA01, DSM 19880 (ATCC 15692); read-out: Antimicrobial activity (MIC) P. a. Here is the method: as §1, §2

Structures are written as SMILES. In brackets after ≈: the same amount, converted by molar mass.

`NCCCCN1C(=O)N(CCCCN)C(=O)C(CCCc2ccccc2)(CCCc2ccccc2)C1=O` [Compound 9]: in experiment [1], the IC50 came to 2.9 µg/mL (≈ 5.72 µM).
On to `CN(C)[C@@H]1C(O)=C(C(N)=O)C(=O)[C@@]2(O)C(O)=C3C(=O)c4c(O)cccc4[C@@](C)(O)[C@H]3[C@H](O)[C@@H]12` [Oxytetracycline, reference compound], for which the MIC was 2.5 µg/mL (≈ 5.43 µM) in experiment [2], 0.65 µg/mL (≈ 1.41 µM) in experiment [3], 0.65 µg/mL (≈ 1.41 µM) in experiment [4] and 20 µg/mL (≈ 43.4 µM) in experiment [5].
